≈ marks a conversion by molar mass, not a printed value. One block for each compound: values may come before it.
Experiments:
Male Wister rats = assay: Sub-chronic toxicity test, liver and kidney functions; format: in vivo
Method: Male Wister rats (weighing about 150-180 g) were divided into 3 equal groups each of 10 rats. Rats of the first group received the vehicle in a dose of 5 mL/kg and left as normal control. Rats of the second and third groups were administered the alcoholic extract of the investigated fungi (500 mg/kg) and the isolated compound (50 mg/kg). All medications were administered orally daily for 15 consecutive days. Animals were maintained under identical conditions with food and water ad libitum for the entire period with close observation. At the end of the experimental period, blood samples were collected from the orbital plexus of rats, 6 h after the last dose. Samples were left to clot at room temperature for 20 min. The obtained sera were collected and used to determine the activity of (AST) aspirate aminotransferase and (ALT) alanine aminotransferase, levels of urea and creatinine were also estimated (Awaad et al. 2014).
The effect of the total alcohol extract of Petriella setifera and isolated compound (Amnomopin) on liver and kidney functions are provided in Table 2. Three groups of animals (n=10) were orally administered the total alcohol extracts (500 mg/kg) and the isolated compound (50 mg/kg) daily for 15 days, while the control group received water orally. After the treatment period, blood samples were collected, sera were separated and different parameters were measured as provided in Table 2. All values were expressed as mean±S.D.

C. glabrata [1] = assay: Anticandidal activity, well-diffusion method; format: cell-based; conditions: 50 μl per 6 mm well, 100 mg/ml, 37° C., 24-48 h
Text: (§1) The fungal strain was isolated from a soil sample collected from Al-Qassim region, Kingdom of Saudi Arabia (KSA). The malt extract agar (MEA) medium (malt extract, 20 g; peptone, 1 g; dextrose, 20 g; agar, 20 g; distilled water, 1 L) was used for isolation, cultivation, identification and production of fungal secondary metabolites of the fungal isolate and test Candida species. Ten clinically isolated Candida species; namely, Candida albicans, C. dubliniensis, C. famata, C. glabrata, C. inconspicua, C. kefyr, C. krusei, C. norvegensis, C. parapsilosis, and C. tropicalis were used as test microorganisms. The fungal isolate and the test organism were identified at the Microbiology Laboratory, Regional Center for Mycology and Biotechnology, Al-Azhar University, Cairo, Egypt.
(§2) Anticandidal activities of total alcoholic extract of Petriella setifera and the isolated compound (amnomopin) were determined using well-diffusion method according to Zain et al. (2012). Petri plates containing 20 ml of malt extract agar medium were seeded with 48 h cultures of candidal inoculums (1-2×10^7 Colony Forming Units [CFU/ml]). Wells (6 mm in diameter) were cut off into agar and 50 μl of extract and the isolated compound were tested in a concentration of 100 mg/ml and incubated at 37° C. for 24-48h. The assessment of anticandidal activity was based on measurement of the diameter of the inhibition zone formed around the well.

C. krusei [2] = assay: Anticandidal activity, well-diffusion method; format: cell-based; conditions: 50 μl per 6 mm well, 100 mg/ml, 37° C., 24-48 h
Text: as §1, §2

C. famata [3] = assay: Anticandidal activity, well-diffusion method; format: cell-based; conditions: 50 μl per 6 mm well, 100 mg/ml, 37° C., 24-48 h
Text: as §1, §2

C. inconspicua [4] = assay: Anticandidal activity, well-diffusion method; format: cell-based; conditions: 50 μl per 6 mm well, 100 mg/ml, 37° C., 24-48 h
Text: as §1, §2

Candida albicans [5] = assay: Anticandidal activity, well-diffusion method; format: cell-based; conditions: C. albicans, 50 μl per 6 mm well, 100 mg/ml, 37° C., 24-48 h
Text: as §1, §2

C. tropicalis [6] = assay: Anticandidal activity, well-diffusion method; format: cell-based; conditions: 50 μl per 6 mm well, 100 mg/ml, 37° C., 24-48 h
Text: as §1, §2

C. kefyr [7] = assay: Anticandidal activity, well-diffusion method; format: cell-based; conditions: 50 μl per 6 mm well, 100 mg/ml, 37° C., 24-48 h
Text: as §1, §2

C. parapsilosis [8] = assay: Anticandidal activity, well-diffusion method; format: cell-based; conditions: 50 μl per 6 mm well, 100 mg/ml, 37° C., 24-48 h
Text: as §1, §2

C. dubliniensis [9] = assay: Anticandidal activity, well-diffusion method; format: cell-based; conditions: 50 μl per 6 mm well, 100 mg/ml, 37° C., 24-48 h
Text: as §1, §2

C. norvegensis [10] = assay: Anticandidal activity, well-diffusion method; format: cell-based; conditions: 50 μl per 6 mm well, 100 mg/ml, 37° C., 24-48 h
Text: as §1, §2

C. glabrata [11] = assay: Minimum inhibitory concentration, micro-dilution method; format: cell-based; conditions: malt extract broth, 37° C., 24-48 h
Text: as §1
(§3) The minimum inhibitory concentration (MIC) was determined for both total extract of Petriella setifera and the isolated compound by micro-dilution method using serially diluted (2 folds) according to Awaad et al. (2012). The MIC was determined by dilution of total extract and isolated compound of concentrations of 0.0-1000 μg/ml. Equal volume of each extract and malt extract broth were mixed in a test tube. Specifically, 0.1 ml of standardized inoculum (1-2×10^7 CFU/ml) was added in each tube. The tubes were incubated at 37° C. for 24-48 h. Two control tubes; tube containing the growth medium, saline and the inoculum, were maintained for each test batch. The lowest concentration (highest dilution) of the extract that produced no visible candidal growth (no turbidity) when compared with the control tubes were regarded as MIC.

C. krusei [12] = assay: as above; format: cell-based; conditions: malt extract broth, 37° C., 24-48 h
Text: as §1, §3

C. famata [13] = assay: as above; format: cell-based; conditions: malt extract broth, 37° C., 24-48 h
Text: as §1, §3

C. inconspicua [14] = assay: as above; format: cell-based; conditions: malt extract broth, 37° C., 24-48 h
Text: as §1, §3

Candida albicans [15] = assay: as above; format: cell-based; conditions: C. albicans, malt extract broth, 37° C., 24-48 h
Text: as §1, §3

C. tropicalis [16] = assay: as above; format: cell-based; conditions: malt extract broth, 37° C., 24-48 h
Text: as §1, §3

C. kefyr [17] = assay: as above; format: cell-based; conditions: malt extract broth, 37° C., 24-48 h
Text: as §1, §3

C. parapsilosis [18] = assay: as above; format: cell-based; conditions: malt extract broth, 37° C., 24-48 h
Text: as §1, §3

C. dubliniensis [19] = assay: as above; format: cell-based; conditions: malt extract broth, 37° C., 24-48 h
Text: as §1, §3

C. norvegensis [20] = assay: as above; format: cell-based; conditions: malt extract broth, 37° C., 24-48 h
Text: as §1, §3

[21] = rat serum, oral daily for 15 days, mean±S.D., n=10

MIC (C. glabrata [11]; Nakaseomyces glabratus): 62.5 µg/mL (≈ 80 µM)
MIC (C. krusei [12]; Pichia kudriavzevii): 1.95 µg/mL (≈ 2.5 µM)
MIC (C. famata [13]; Debaryomyces hansenii): 3.9 µg/mL (≈ 4.99 µM)
MIC (C. inconspicua [14]; Pichia inconspicua): 32.2 µg/mL (≈ 41.3 µM)
Minimum Inhibitory Concentration (MIC) (Candida albicans [15]): 01.95 µg/mL
Minimum Inhibitory Concentration (MIC) (Candida albicans [15]; listed as amnomopin): 00.49 µg/mL
MIC (C. tropicalis [16]; Candida tropicalis): 7.81 µg/mL (≈ 10 µM)
MIC (C. kefyr [17]; Kluyveromyces marxianus): 0.49 µg/mL (≈ 0.627 µM)
Minimum Inhibitory Concentration (MIC) (C. kefyr [17]): 00.98 µg/mL
MIC (C. parapsilosis [18]; Lodderomyces parapsilosis): 32.2 µg/mL (≈ 41.3 µM)
MIC (C. dubliniensis [19]; Candida dubliniensis): 62.5 µg/mL (≈ 80 µM)
MIC (C. norvegensis [20]; Pichia norvegensis): 0.98 µg/mL (≈ 1.25 µM)
Minimum Inhibitory Concentration (MIC) (C. norvegensis [20]): 01.95 µg/mL
Structure (SMILES): CC1(C)CCC2(C(=O)O)CCC3(C)C(CCC4C5(C)CCC(O[C@@H]6OC(CO)[C@@H](O)C(O)C6O[C@@H]6OC(CO)[C@@H](O)C(O)C6O)C(C)(C)C5=CCC43C)C2C1 (stereo partly drawn) [Amnomopin, 3β-diglucoside-5, 12-28-oic acid]
Kidney function Blood urea (Male Wister rats; [21]): 30.85 ± 1.83 mg/dL
Kidney function Serum Creatinine (Male Wister rats; [21]): 0.38 ± 0.02 mg/dL
Liver function ALT (Male Wister rats; [21]): 146.30 ± 4.30 U/l
Liver function AST (Male Wister rats; [21]): 66.72 ± 2.82 U/l
effect on the activity of ALT, AST and the levels of blood urea and serum creatinine (Male Wister rats; rats, oral dosing for 15 days, extract 500 mg/kg, compound 50 mg/kg): did not show any significant effect
zone of inhibition at 100000 µg/mL (C. glabrata [1]; Nakaseomyces glabratus, read-out: Diameter of inhibition zone): 16.3 ± 0.63 mm
zone of inhibition at 100000 µg/mL (C. krusei [2]; Pichia kudriavzevii, read-out: Diameter of inhibition zone): 20.9 ± 0.58 mm
zone of inhibition at 100000 µg/mL (C. famata [3]; Debaryomyces hansenii, read-out: Diameter of inhibition zone): 20.1 ± 1.5 mm
zone of inhibition at 100000 µg/mL (C. inconspicua [4]; Pichia inconspicua, read-out: Diameter of inhibition zone): 18.3 ± 2.1 mm
Diameter of inhibition zone (Candida albicans [5]): 23.1 ± 2.10 mm
zone of inhibition at 100000 µg/mL (Candida albicans [5]; Candida albicans, read-out: Diameter of inhibition zone): 23.1 ± 2.1 mm
zone of inhibition at 100000 µg/mL (C. tropicalis [6]; Candida tropicalis, read-out: Diameter of inhibition zone): 19.4 ± 1.2 mm
Diameter of inhibition zone (C. kefyr [7]): 24.2 ± 2.10 mm
zone of inhibition at 100000 µg/mL (C. kefyr [7]; Kluyveromyces marxianus, read-out: Diameter of inhibition zone): 24.2 ± 2.1 mm
zone of inhibition at 100000 µg/mL (C. parapsilosis [8]; Lodderomyces parapsilosis, read-out: Diameter of inhibition zone): 18.4 ± 0.72 mm
zone of inhibition at 100000 µg/mL (C. dubliniensis [9]; Candida dubliniensis, read-out: Diameter of inhibition zone): 16.2 ± 0.63 mm
Diameter of inhibition zone (C. norvegensis [10]): 22.1 ± 1.20 mm
zone of inhibition at 100000 µg/mL (C. norvegensis [10]; Pichia norvegensis, read-out: Diameter of inhibition zone): 22.1 ± 1.2 mm

Minimum Inhibitory Concentration (MIC) (C. glabrata [11]): 03.90 µg/mL
Minimum Inhibitory Concentration (MIC) (C. krusei [12]): 00.98 µg/mL
Minimum Inhibitory Concentration (MIC) (C. famata [13]): 03.90 µg/mL
Minimum Inhibitory Concentration (MIC) (C. inconspicua [14]): 00.98 µg/mL
Minimum Inhibitory Concentration (MIC) (Candida albicans [15]): 00.49 µg/mL
Minimum Inhibitory Concentration (MIC) (C. tropicalis [16]): 03.90 µg/mL
Minimum Inhibitory Concentration (MIC) (C. kefyr [17]): 00.49 µg/mL
Minimum Inhibitory Concentration (MIC) (C. parapsilosis [18]): 00.49 µg/mL
Minimum Inhibitory Concentration (MIC) (C. dubliniensis [19]): 00.49 µg/mL
Minimum Inhibitory Concentration (MIC) (C. norvegensis [20]): 00.49 µg/mL
Structure (SMILES): C[C@@H]1[C@H](O)[C@@H](C)/C=C/C=C/C=C/C=C/C=C/C=C/C=C/[C@H](O[C@@H]2O[C@H](C)[C@@H](O)[C@H](N)[C@@H]2O)C[C@@H]2O[C@](O)(C[C@@H](O)C[C@@H](O)[C@H](O)CC[C@@H](O)C[C@@H](O)CC(=O)O[C@H]1C)C[C@H](O)[C@H]2C(=O)O [Amphotericin B, reference compound]
Diameter of inhibition zone (C. glabrata [1]): 19.3 ± 2.10 mm
Diameter of inhibition zone (C. krusei [2]): 23.7 ± 0.63 mm
Diameter of inhibition zone (C. famata [3]): 20.4 ± 0.63 mm
Diameter of inhibition zone (C. inconspicua [4]): 21.9 ± 1.20 mm
Diameter of inhibition zone (Candida albicans [5]): 26.3 ± 1.20 mm
Diameter of inhibition zone (C. tropicalis [6]): 19.6 ± 1.50 mm
Diameter of inhibition zone (C. kefyr [7]): 26.3 ± 1.20 mm
Diameter of inhibition zone (C. kefyr [7]; listed as amphotericin B): 26.3±1.20 mm
Diameter of inhibition zone (C. parapsilosis [8]): 32.4 ± 0.58 mm
Diameter of inhibition zone (C. dubliniensis [9]): 24.1 ± 1.20 mm
Diameter of inhibition zone (C. norvegensis [10]): 28.7 ± 0.72 mm

Reference: patent US9629885B1, “Method for treating candidiasis” (KING SAUD UNIVERSITY, priority 2016, dated 2017)
